Test results taken from ChEMBL document CHEMBL1201862, “PubChem BioAssay data set” (2004).
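Results reflect a 48-hour exposure of cells in 96-well plates to compound at five concentrations. GI50 = concentration required for 50% inhibition of growth.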 Active and inactive are the calls of the source. Cut-off read from the data, not from the text of the source: active = GI50 up to about 1.1 µM and inactive = higher.

Experiments:
Test in all cases: NCI anticancer screen, dose series, 48 h
[1] = test system: SK-MEL-28
[2] = test system: HOP-92
[3] = test system: A498
[4] = test system: ACHN
[5] = test system: SK-MEL-5
[6] = test system: SN12C
[7] = test system: RPMI-8226
[8] = test system: HOP-62
[9] = test system: SW-620
[10] = test system: EKVX
[11] = test system: NCI/ADR-RES
[12] = test system: SF-268
[13] = test system: OVCAR-8
[14] = test system: Malme-3M
[15] = test system: LOX IMVI
[16] = test system: RXF 393
[17] = test system: MDA-MB-231
[18] = test system: U-251
[19] = test system: HL-60
[20] = test system: Hs-578T

Row | SMILES | GI50 [1] | GI50 [2] | GI50 [3] | GI50 [4] | GI50 [5] | GI50 [6] | GI50 [7] | GI50 [8] | GI50 [9] | GI50 [10] | GI50 [11] | GI50 [12] | GI50 [13] | GI50 [14] | GI50 [15] | GI50 [16] | GI50 [17] | GI50 [18] | GI50 [19] | GI50 [20]
1 | COc1cccc(Nc2n[nH]c(NS(=O)(=O)c3cc(C)c(Cl)cc3S)n2)c1 | > 100 µM (inactive) | > 100 µM (inactive) | > 100 µM (inactive) | > 100 µM (inactive) | > 100 µM (inactive) | > 100 µM (inactive) | > 100 µM (inactive) | > 100 µM (inactive) | > 100 µM (inactive) | > 100 µM (inactive) | > 100 µM (inactive) | > 100 µM (inactive) | > 100 µM (inactive) | > 100 µM (inactive) | > 100 µM (inactive) | > 100 µM (inactive) | > 100 µM (inactive) | > 100 µM (inactive) | > 100 µM (inactive) | > 100 µM (inactive)
2 | Oc1cccc2cc(Cl)cnc12 | 58.7 µM (inactive) | 43.2 µM (inactive) | 23.8 µM (inactive) | 8.95 µM (inactive) | 8.41 µM (inactive) | 7.33 µM (inactive) | 4.91 µM (inactive) | 5.77 µM (inactive) | 7.18 µM (inactive) | 4.88 µM (inactive) | 3.48 µM (inactive) | 3.85 µM (inactive) | 3.7 µM (inactive) | > 30.3 µM (inactive) | 5.04 µM (inactive) | 12.3 µM (inactive) | 9.68 µM (inactive) | 9.08 µM (inactive) | 1.08 µM (active) | 6.93 µM (inactive)
3 | CC(=O)/C(=C(/Br)I)c1ccccc1 | 11.2 µM (inactive) | 10.5 µM (inactive) | 14.5 µM (inactive) | 13 µM (inactive) | 7.71 µM (inactive) | 5.26 µM (inactive) | 2.58 µM (inactive) | 14.1 µM (inactive) | 3.15 µM (inactive) | 12.6 µM (inactive) | 9.35 µM (inactive) | 12 µM (inactive) | 11.6 µM (inactive) | 10.9 µM (inactive) | 9.84 µM (inactive) | 3.36 µM (inactive) | 13.2 µM (inactive) | 13.1 µM (inactive) | 1.95 µM (inactive) | 30.7 µM (inactive)
4 | CC1=NN(C(=O)c2ccccc2O)C(c2ccccc2Cl)C1C(=O)Nc1ccccc1 (stereo not given) | 40.4 µM (inactive) | > 100 µM (inactive) | < 0.01 µM (active) | 0.0238 µM (active) | 0.167 µM (active) | 0.0224 µM (active) | 0.0726 µM (active) | 0.262 µM (active) | 0.388 µM (active) | 1.7 µM (inactive) | 0.0458 µM (active) | < 0.01 µM (active) | 0.0986 µM (active) | 0.0565 µM (active) | 0.0728 µM (active) | 0.0553 µM (active) | 0.647 µM (active) | < 0.0213 µM (active) | 0.161 µM (active) | < 0.01 µM (active)
5 | CNC(=O)OCc1nc(N=[N+]=[N-])n(C)c1COC(=O)NC | > 100 µM (inactive) | 25.3 µM (inactive) | 32.3 µM (inactive) | 33.4 µM (inactive) | > 10 µM (inactive) | 55.7 µM (inactive) | 28.6 µM (inactive) | 52.7 µM (inactive) | 66.1 µM (inactive) | > 100 µM (inactive) | 69.8 µM (inactive) | 32.1 µM (inactive) | 58.9 µM (inactive) | 55.7 µM (inactive) | 60.8 µM (inactive) | 21.7 µM (inactive) | 95.5 µM (inactive) | 31.3 µM (inactive) | 17.5 µM (inactive) | > 100 µM (inactive)
